From PubChem BioAssay AID254 (DTP/NCI, 2004) come the findings set out here.

Each structure is given as a SMILES string. “And” between values parts separate entries of the source, which are not always exact repeats. Equal entries are not always repeated. Toxic doses and inconclusive results are not listed.

This test concerns L1210 leukemia iv in BDF1 mice, survival T/C. Description: NCI In Vivo Anticancer Drug Screen. Data for tumor model L1210 Leukemia (intravenous) in B6D2F1 (BDF1) mice. The settings on record: endpoint: mean survival time, higher = longer survival. As to the method: The antitumor activity of compounds was measured in mice bearing transplantable tumors. Survival or tumor size were measured and the results are expressed as the measurement made in the treated group (T) divided by the measurement made in the vehicle treated control group (C). The tumor model used in this assay is L1210 Leukemia (intravenous) in B6D2F1 (BDF1) mice

The mark [1] stands for this setting: dose: 48.0 mg/kg/injection, schedule: Q01DX001 (ip), vehicle: other.

`O=P1(N(CCCl)CCCl)NCCCO1` (stereo unspecified): the T/C reads like this: (dose: 28.0 mg/kg/injection, schedule: Q01DX001 (ip), vehicle: saline) 106 % of control and 109 % of control; (dose: 60.0 mg/kg/injection, schedule: Q01DX001 (ip), vehicle: saline) 155 % of control and 165 % of control; (dose: 64.0 mg/kg/injection, schedule: Q01DX001 (ip), vehicle: saline) 169 % of control; (dose: 75.0 mg/kg/injection, schedule: Q01DX001 (ip), vehicle: saline) 154 % of control and 164 % of control and 171 % of control; (dose: 80.0 mg/kg/injection, schedule: Q01DX001 (ip), vehicle: saline) 158 % of control and 165 % of control; (dose: 80.0 mg/kg/injection, schedule: Q04DX004 (ip), vehicle: saline) 206 % of control. For the same molecule, the T/C is, setting by setting: (dose: 83.0 mg/kg/injection, schedule: Q01DX001 (ip), vehicle: saline) 170 % of control; (dose: 118.0 mg/kg/injection, schedule: Q01DX001 (ip), vehicle: saline) 162 % of control and 202 % of control; (dose: 120.0 mg/kg/injection, schedule: Q04DX004 (ip), vehicle: saline) 285 % of control; (dose: 225.0 mg/kg/injection, schedule: Q01DX001 (ip), vehicle: saline) 390 % of control and 290 % of control and 304 % of control; (dose: 234.0 mg/kg/injection, schedule: Q01DX001 (ip), vehicle: saline) 522 % of control and 302 % of control; (dose: 468.0 mg/kg/injection, schedule: Q01DX001 (ip), vehicle: saline) 500 % of control.

On to `O=NN(CCCl)C(=O)NC1CCC(NC(=O)N(CCCl)N=O)CC1` (stereo unspecified), for which the T/C is, setting by setting: (dose: 23.0 mg/kg/injection, schedule: Q01DX001 (ip), vehicle: other) 157 % of control and 193 % of control; (dose: 38.0 mg/kg/injection, schedule: Q01DX001 (oral), vehicle: other) 124 % of control; (dose: 44.0 mg/kg/injection, schedule: Q01DX001 (ip), vehicle: saline with Tween-80) 169 % of control; under setting [1], 450 % of control and 218 % of control; (dose: 67.0 mg/kg/injection, schedule: Q01DX001 (ip), vehicle: saline with Tween-80) 178 % of control and 169 % of control; (dose: 84.0 mg/kg/injection, schedule: Q01DX001 (oral), vehicle: other) 150 % of control and 165 % of control. Besides, the T/C reads like this: (dose: 96.0 mg/kg/injection, schedule: Q01DX001 (ip), vehicle: other) 375 % of control and 594 % of control; (dose: 100.0 mg/kg/injection, schedule: Q01DX001 (ip), vehicle: saline with Tween-80) 246 % of control and 238 % of control; (dose: 150.0 mg/kg/injection, schedule: Q01DX001 (ip), vehicle: saline with Tween-80) 255 % of control and 263 % of control; (dose: 171.0 mg/kg/injection, schedule: Q01DX001 (oral), vehicle: other) 177 % of control and 214 % of control; (dose: 191.0 mg/kg/injection, schedule: Q01DX001 (ip), vehicle: other) 475 % of control and 531 % of control; (dose: 225.0 mg/kg/injection, schedule: Q01DX001 (ip), vehicle: saline with Tween-80) 438 % of control and 328 % of control. Also, the T/C by setting is: (dose: 319.0 mg/kg/injection, schedule: Q01DX001 (oral), vehicle: other) 453 % of control and 274 % of control; (dose: 337.0 mg/kg/injection, schedule: Q01DX001 (ip), vehicle: saline with Tween-80) 507 % of control; (dose: 383.0 mg/kg/injection, schedule: Q01DX001 (ip), vehicle: other) 340 % of control and 381 % of control; (dose: 638.0 mg/kg/injection, schedule: Q01DX001 (oral), vehicle: other) 478 % of control and 554 % of control.

Turning to `O=NN(CCF)C(=O)NC1CCS(=O)(=O)CC1`, the T/C (dose: 4.8 mg/kg/injection, schedule: Q01DX001 (oral), vehicle: other) was 185 % of control and 225 % of control; the T/C (dose: 6.0 mg/kg/injection, schedule: Q01DX001 (ip), vehicle: other) is 190 % of control and 213 % of control; the T/C (dose: 11.0 mg/kg/injection, schedule: Q01DX001 (oral), vehicle: other) was 429 % of control and 504 % of control; the T/C (dose: 12.0 mg/kg/injection, schedule: Q01DX001 (ip), vehicle: other) is 365 % of control and 518 % of control; the T/C (dose: 21.0 mg/kg/injection, schedule: Q01DX001 (oral), vehicle: other) was 562 % of control and 817 % of control; the T/C (dose: 24.0 mg/kg/injection, schedule: Q01DX001 (ip), vehicle: other) was 620 % of control and 688 % of control. Further, the T/C reads like this: (dose: 40.0 mg/kg/injection, schedule: Q01DX001 (oral), vehicle: other) 436 % of control and 569 % of control; under setting [1], 517 % of control and 590 % of control.
